{"source": "patent US20260015337A1", "about": "(Trawsfynydd Therapeutics, Inc., priority 2022, published 2026)", "data": [{"biological_target": "3CL Protease (Severe acute respiratory syndrome coronavirus 2, UniProt P0DTD1)", "assay": "3CL Protease enzymatic activity assay (BPS Bioscience Assay Kit #78043-1, fluorescence)", "type": "biochemical, SARS-CoV-2", "conditions": "Table A; 30 min preincubation, 40 μM substrate, 4 hours at room temperature; read-out: IC50, nM (3CL Protease enzymatic activity)", "procedure": "(§1) For determination of 3CL Protease enzymatic activity was used Assay Kit of BPS Bioscience, San Diego, CA (Catalog #78043-1).\n(§2) All samples and controls should be tested in duplicate. • 1) Just before use, dilute 0.5 M DTT 500 times into the 3CL Protease Assay Buffer to obtain a DTT concentration of 1 mM. For example, add 10 μl of 0.5 M DTT to 5 ml of assay buffer. Prepare enough DTT-containing buffer as required for the assay. Store the remaining assay buffer at −20° C. • 2) Thaw the 3CL Protease on ice. Briefly spin the tube containing the enzyme to recover the full content of the tube. Note: 3CL Protease enzyme is sensitive to freeze/thaw cycles. […] Note: The exact concentration and volume of enzyme is lot-specific and will be indicated on the tube. Calculate required dilution from the information in the tube. It may be desirable to dilute the enzyme serially to avoid using large amounts of protease assay buffer for the dilution. • 4) Add 30 μl of diluted 3CL Protease to the wells designated as “Positive Control,” “Inhibitor Control,” and “Test Inhibitor.” Add 30 μl of Assay Buffer (containing 1 mM DTT) to the “Blank” wells. • 5) Dilute the 50 μg GC376 in 200 μl of Assay Buffer to obtain a 500 μM solution. Add 10 μl of GC376 (500 μM) to the wells labeled “Inhibitor Control”. Aliquot and store the remaining solution at −80° C. • 6) Prepare the Test Inhibitor. The final concentration of DMSO in the assay should not exceed 1%. If the Test Inhibitor is dissolved in DMSO, make a 100-fold higher concentration of the compound than the highest desired concentration. Then make a 20-fold dilution in 1× Assay Buffer (containing DTT). At this step the compound concentration is 5-fold higher than the final concentration. If the test inhibitor is dissolved in water, make a 5-fold higher concentration of the test compound than the final desired concentration in the Assay buffer (containing DTT). Add 10 μl of Test Inhibitor to each well designated “Test Inhibitor”. • 7) Diluent Solution (no inhibitor): add 10 μl of assay buffer (if the test compound is water soluble and was diluted in assay buffer) or 10 μl of 5% DMSO diluted in assay buffer (if DMSO was used to dissolve the test inhibitor) to “Blank” and “Positive Control” wells.\n(§3) • 8) Preincubate for 30 min at room temperature with slow shaking. • 9) Dilute the 25 μl of 3CL Protease substrate (10 mM) in 1.25 ml of the Assay Buffer containing DTT, to make a […] solution. The final concentration of the 3CL Protease substrate in a 50 μl reaction is 40 μM. • 10) Start the reaction by adding 10 μl of the substrate solution to all the wells. Seal the plate with the plate sealer and incubate for 4 hours at room temperature with slow shaking. • 11) Measure the fluorescence intensity in a microtiter plate-reader fluorometer (Tecan Spark Cyto) capable of excitation at a wavelength 360 nm and detection of emission at a wavelength 460 nm. The fluorescence intensity can also be measured kinetically. The “Blank” value is subtracted from all other values. • The % inhibition was then used to calculate the IC50 values.", "units": {"IC50": "nM"}, "values": [{"smiles": "CC(C)(C)[C@H](NC(=O)C(F)(F)F)C(=O)N1C[C@H]2[C@@H]([C@H]1C(=O)NC(C#N)Cc1cc3c([nH]c1=O)CCCC3)C2(C)C", "note": "(mixture of isomers) [Compound 121, (1R,2S,5S)—N-(1-Cyano-2-(2-oxo-1,2,5,6,7,8-hexahydroquinolin-3-yl)ethyl)-3-((S)-3,3-dimethyl-2-(2,2,2-trifluoroacetamido)butanoyl)-6,6-dimethyl-3-azabicyclo[3.1.0]hexane-2-carboxamide]", "IC50": "250 to 500"}, {"smiles": "CC(C)(C)[C@H](NC(=O)C(F)(F)F)C(=O)N1C[C@H]2C([C@H]1C(=O)NC(C#N)Cc1ccc[nH]c1=O)C2(C)C", "note": "(stereo in doubt) [Compound 101, (1R,2S,5S)—N-(1-Cyano-2-(2-oxo-1,2-dihydropyridin-3-yl)ethyl)-3-((S)-3,3-dimethyl-2-(2,2,2-trifluoroacetamido)butanoyl)-6,6-dimethyl-3-azabicyclo[3.1.0]hexane-2-carboxamide]", "IC50": "100 to 250"}, {"smiles": "Cc1ccc2[nH]c(=O)c(CC(C#N)NC(=O)[C@@H]3C4[C@H](CN3C(=O)[C@@H](NS(C)(=O)=O)C(C)(C)C)C4(C)C)cc2c1", "note": "(stereo in doubt) [Compound 102, (1R,2S,5S)—N-(1-Cyano-2-(6-methyl-2-oxo-1,2-dihydroquinolin-3-yl)ethyl)-3-((S)-3,3-dimethyl-2-(methylsulfonamido)butanoyl)-6,6-dimethyl-3-azabicyclo[3.1.0]hexane-2-carboxamide]", "IC50": "< 50"}, {"smiles": "CC(C)(C)[C@H](NC(=O)C(F)(F)F)C(=O)N1C[C@H]2C([C@H]1C(=O)NC(C#N)Cc1cc3cc(Cl)ccc3[nH]c1=O)C2(C)C", "note": "(stereo in doubt) [Compound 104, (1R,2S,5S)—N-(2-(6-Chloro-2-oxo-1,2-dihydroquinolin-3-yl)-1-cyanoethyl)-3-((S)-3,3-dimethyl-2-(2,2,2-trifluoroacetamido)butanoyl)-6,6-dimethyl-3-azabicyclo[3.1.0]hexane-2-carboxamide]", "IC50": "50 to 100"}, {"smiles": "CC(C)(C)[C@H](NC(=O)C(F)(F)F)C(=O)N1C[C@H]2C([C@H]1C(=O)NC(C#N)Cc1cc3ccc(Cl)cc3[nH]c1=O)C2(C)C", "note": "(stereo in doubt) [Compound 105, (1R,2S,5S)—N-(2-(7-Chloro-2-oxo-1,2-dihydroquinolin-3-yl)-1-cyanoethyl)-3-((S)-3,3-dimethyl-2-(2,2,2-trifluoroacetamido)butanoyl)-6,6-dimethyl-3-azabicyclo[3.1.0]hexane-2-carboxamide]", "IC50": "50 to 100"}, {"smiles": "CC(C)(C)[C@H](NC(=O)C(F)(F)F)C(=O)N1C[C@H]2C([C@H]1C(=O)NC(C#N)Cc1cc3ccc(F)cc3[nH]c1=O)C2(C)C", "note": "(stereo in doubt) [Compound 106, (1R,2S,5S)—N-(1-Cyano-2-(7-fluoro-2-oxo-1,2-dihydroquinolin-3-yl)ethyl)-3-((S)-3,3-dimethyl-2-(2,2,2-trifluoroacetamido)butanoyl)-6,6-dimethyl-3-azabicyclo[3.1.0]hexane-2-carboxamide]", "IC50": "100 to 250"}, {"smiles": "Cc1ccc2[nH]c(=O)c(C[C@@H](C#N)NC(=O)[C@@H]3[C@H]4[C@H](CN3C(=O)[C@@H](NC(=O)C(F)(F)F)C(C)(C)C)C4(C)C)cc2c1", "note": "(stereo in doubt) [Compound 107, (1R,2S,5S)—N-(1-Cyano-2-(6-methyl-2-oxo-1,2-dihydroquinolin-3-yl)ethyl)-3-((S)-3,3-dimethyl-2-(2,2,2-trifluoroacetamido)butanoyl)-6,6-dimethyl-3-azabicyclo[3.1.0]hexane-2-carboxamide]", "IC50": "50 to 100"}, {"smiles": "COc1ccc2[nH]c(=O)c(CC(C#N)NC(=O)[C@@H]3C4[C@H](CN3C(=O)[C@@H](NC(=O)C(F)(F)F)C(C)(C)C)C4(C)C)cc2c1", "note": "(stereo in doubt) [Compound 109, (1R,2S,5S)—N-(1-Cyano-2-(6-methoxy-2-oxo-1,2-dihydroquinolin-3-yl)ethyl)-3-((S)-3,3-dimethyl-2-(2,2,2-trifluoroacetamido)butanoyl)-6,6-dimethyl-3-azabicyclo[3.1.0]hexane-2-carboxamide]", "IC50": "250 to 500"}, {"smiles": "Cn1cccc(CC(C#N)NC(=O)[C@@H]2C3[C@H](CN2C(=O)[C@@H](NC(=O)C(F)(F)F)C(C)(C)C)C3(C)C)c1=O", "note": "(stereo in doubt) [Compound 112, (1R,2S,5S)—N-(1-Cyano-2-(1-methyl-2-oxo-1,2-dihydropyridin-3-yl)ethyl)-3-((S)-3,3-dimethyl-2-(2,2,2-trifluoroacetamido)butanoyl)-6,6-dimethyl-3-azabicyclo[3.1.0]hexane-2-carboxamide]", "IC50": "≥ 1000"}, {"smiles": "CC(C)(C)[C@H](NS(C)(=O)=O)C(=O)N1C[C@H]2C([C@H]1C(=O)NC(C#N)Cc1cc3c([nH]c1=O)CCCC3)C2(C)C", "note": "(stereo in doubt) [Compound 122, (1R,2S,5S)—N-(1-Cyano-2-(2-oxo-1,2,5,6,7,8-hexahydroquinolin-3-yl)ethyl)-3-((S)-3,3-dimethyl-2-(methylsulfonamido)butanoyl)-6,6-dimethyl-3-azabicyclo[3.1.0]hexane-2-carboxamide]", "IC50": "100 to 250"}, {"smiles": "CC(C)(C)[C@H](NC(=O)C(F)(F)F)C(=O)N1C[C@H]2C([C@H]1C(=O)NC(C#N)Cc1cc3c([nH]c1=O)CCOC3)C2(C)C", "note": "(stereo in doubt) [Compound 123, (1R,2S,5S)—N-(1-Cyano-2-(2-oxo-1,5,7,8-tetrahydro-2H-pyrano[4,3-b]pyridine-3-yl)ethyl)-3-((S)-3,3-dimethyl-2-(2,2,2-trifluoroacetamido)butanoyl)-6,6-dimethyl-3-azabicyclo[3.1.0]hexane-2-carboxamide]", "IC50": "100 to 250"}, {"smiles": "CC(C)(C)[C@H](NS(C)(=O)=O)C(=O)N1C[C@H]2C([C@H]1C(=O)NC(C#N)Cc1cc3c([nH]c1=O)CCOC3)C2(C)C", "note": "(stereo in doubt) [Compound 124, (1R,2S,5S)—N-(1-Cyano-2-(2-oxo-1,5,7,8-tetrahydro-2H-pyrano[4,3-b]pyridine-3-yl)ethyl)-3-((S)-3,3-dimethyl-2-(methylsulfonamido)butanoyl)-6,6-dimethyl-3-azabicyclo[3.1.0]hexane-2-carboxamide]", "IC50": "100 to 250"}, {"smiles": "CC(C)(C)[C@H](NC(=O)C(F)(F)F)C(=O)N1C[C@H]2C([C@H]1C(=O)NC(C#N)Cc1cc3c([nH]c1=O)CCC(F)(F)C3)C2(C)C", "note": "(stereo in doubt) [Compound 125, (1R,2S,5S)—N-(1-Cyano-2-(6,6-difluoro-2-oxo-1,2,5,6,7,8-hexahydroquinolin-3-yl)ethyl)-3-((S)-3,3-dimethyl-2-(2,2,2-trifluoroacetamido)butanoyl)-6,6-dimethyl-3-azabicyclo[3.1.0]hexane-2-carboxamide]", "IC50": "250 to 500"}, {"smiles": "CC(C)(C)[C@H](NS(C)(=O)=O)C(=O)N1C[C@H]2C([C@H]1C(=O)NC(C#N)Cc1cc3c([nH]c1=O)CCC(F)(F)C3)C2(C)C", "note": "(stereo in doubt) [Compound 126, (1R,2S,5S)—N-(1-Cyano-2-(6,6-difluoro-2-oxo-1,2,5,6,7,8-hexahydroquinolin-3-yl)ethyl)-3-((S)-3,3-dimethyl-2-(methylsulfonamido)butanoyl)-6,6-dimethyl-3-azabicyclo[3.1.0]hexane-2-carboxamide]", "IC50": "100 to 250"}, {"smiles": "CC1(C)CCc2[nH]c(=O)c(CC(C#N)NC(=O)[C@@H]3C4[C@H](CN3C(=O)[C@@H](NC(=O)C(F)(F)F)C(C)(C)C)C4(C)C)cc2C1", "note": "(stereo in doubt) [Compound 127, (1R,2S,5S)—N-(1-Cyano-2-(6,6-dimethyl-2-oxo-1,2,5,6,7,8-hexahydroquinolin-3-yl)ethyl)-3-((S)-3,3-dimethyl-2-(2,2,2-trifluoroacetamido)butanoyl)-6,6-dimethyl-3-azabicyclo[3.1.0]hexane-2-carboxamide]", "IC50": "500 to 1000"}]}, {"biological_target": "3CL Protease (Severe acute respiratory syndrome coronavirus 2, UniProt P0DTD1)", "assay": "3CL Protease enzymatic activity assay (BPS Bioscience Assay Kit #78043-1, fluorescence)", "type": "biochemical, SARS-CoV-2", "conditions": "Table B; comparison with known compound K; read-out: IC50, nM (3CL Protease enzymatic activity, comparative data)", "procedure": "as §1, §2, §3", "units": {"IC50": "nM"}, "values": [{"smiles": "CC(C)(C)[C@H](NC(=O)C(F)(F)F)C(=O)N1C[C@H]2C([C@H]1C(=O)NC(C#N)Cc1ccc[nH]c1=O)C2(C)C", "note": "(stereo in doubt) [Compound 101, (1R,2S,5S)—N-(1-Cyano-2-(2-oxo-1,2-dihydropyridin-3-yl)ethyl)-3-((S)-3,3-dimethyl-2-(2,2,2-trifluoroacetamido)butanoyl)-6,6-dimethyl-3-azabicyclo[3.1.0]hexane-2-carboxamide]", "IC50": 147}, {"smiles": "CC(C)(C)[C@H](NC(=O)C(F)(F)F)C(=O)N1C[C@H]2C([C@H]1C(=O)NC(C#N)Cc1cc3cc(Cl)ccc3[nH]c1=O)C2(C)C", "note": "(stereo in doubt) [Compound 104, (1R,2S,5S)—N-(2-(6-Chloro-2-oxo-1,2-dihydroquinolin-3-yl)-1-cyanoethyl)-3-((S)-3,3-dimethyl-2-(2,2,2-trifluoroacetamido)butanoyl)-6,6-dimethyl-3-azabicyclo[3.1.0]hexane-2-carboxamide]", "IC50": 89}, {"smiles": "CC(C)(C)[C@H](NC(=O)C(F)(F)F)C(=O)N1C[C@H]2C([C@H]1C(=O)NC(C#N)Cc1cc3c([nH]c1=O)CCOC3)C2(C)C", "note": "(stereo in doubt) [Compound 123, (1R,2S,5S)—N-(1-Cyano-2-(2-oxo-1,5,7,8-tetrahydro-2H-pyrano[4,3-b]pyridine-3-yl)ethyl)-3-((S)-3,3-dimethyl-2-(2,2,2-trifluoroacetamido)butanoyl)-6,6-dimethyl-3-azabicyclo[3.1.0]hexane-2-carboxamide]", "IC50": 180}]}]}
